In article PMC7616463, “Peptidic boronic acid Plasmodium falciparum SUB1 inhibitors with improved selectivity over human proteasome” (Journal of medicinal chemistry, 2024):

Tests used:
[1] = target: T1, recombinant PfSUB1 (rPfSUB1) (Plasmodium falciparum, UniProt Q8I0V0); assay: PfSUB1 enzyme assay (recombinant PfSUB1, fluorogenic peptide substrate); format: biochemical; conditions: for IC50: rPfSUB1, substrate SERA4st1F-6R12 0.1 μM, 5 min preincubation, pH 8.2, fluorescence, duplicate, read-out: IC50, nM PfSUB1 inhibition; for inhibition of rPfSUB1 activity at 1 μM: 1 μM final concentration, typical of duplicate assays
T1 construct: made in house
Description: The proteolytic activity of rPfSUB1 was monitored by the cleavage of the fluorogenic peptidic substrate SERA4st1F-6R12 (Ac-[…]-OH) and has been described previously.[28] Briefly, chymotrypsin treated rPfSUB1 (expressed and purified as described before […] was stored at −80 °C as a 228 U/mL stock in 20 mM Tris−HCl pH 8.2, 150 mM NaCl, 10% glycerol, and diluted for use (1:500) in reaction buffer (20 mM Tris−HCl pH 8.2, 150 mM NaCl, 12 mM CaCl2, 25 mM CHAPS). Peptidic boronic acid inhibitors were dissolved in 100% DMSO at 20 mM, then further diluted in DMSO to generate stock solutions ranging from 500 to 0.01 μM and then used diluted 1:100 in the enzyme reactions. All reactions were performed in wells of white 96-well microwell plates (Nunc); 50 μL diluted rPfSUB1 was preincubated for 5 min with 1 μL each of the serially diluted boronic acid inhibitors, followed by addition of 50 μL substrate solution (0.1 μM final). Subsequent fluorescence increase was continuously monitored using a SpectraMax M5e plate reader and SoftMax Pro-6.3 software, with readings taken every 3 min for 60 min using excitation and emission values of 552 and 580 nm, respectively. […] All experiments were performed in duplicate.

[2] = target: T2, human 20S proteasome (H20S), chymotrypsin-like β5 activity (Homo sapiens, UniProt P20618+P28074); assay: Human 20S proteasome kinetic assay (chymotrypsin-like β5 activity); format: biochemical; conditions: purified human 20S proteasome, β5 activity, substrate LLVY-R110, fluorescence; duplicate; read-out: IC50, nM H20S inhibition
T2 construct: variant as stated: H20S
Description: The fluorescent Proteasome substrate LLVY-R110 (ex: 490 nm, Em:525 nm) (#MAK172, Sigma-Aldrich) was used to measure the chymotrypsin-like activity (β5) of the human 20S proteasome and was prepared according to the activity assay kit instructions. Cleavage of this peptide generated intense green fluorescence due to the R110 group and was monitored at 520-530 nm with excitation at 480-500 nm. The purified human 20S proteasome (BML-PW8720-0050, EnzoSciences), stored at 1mg/ml in 20 mM Tris-HCl pH 7.2, 1mM EDTA, 1mM DTT 1mM NaN3, 50% glycerol was diluted in TRIS-buffered saline (TBS, pH 7.4) to an intermediate concentration of 0.44 μM. […] The reactions were performed in white 96-well fluorescent microtiter-plate format (Nunc). The Substrate solution was added first (100 μl), followed by 1 μl of the inhibitor (50 μM intermediate stock) and 1 μl of the H20S proteasome at 0.44 μM. The IC50s were determined for a selection of potent PfSUB1 inhibitors. After sequential dilution of the inhibitors in 100% DMSO, 1 μl of each dilution was used in a 100 μl reaction containing the fluorescent substrate. The reaction was initiated by the addition of 1 μl of the 20S proteasome intermediate stock solution. The fluorescence increase was monitored using a SpectraMax M5e plate reader and SoftMax Pro-6.3 software Measure activity on a plate reader (ex: 490 nm, Em: 525 nm) with the photomultiplier tube (PMT) set to medium with readings every 3 min for one hour. All measurements were done in duplicate. The progress curves were plotted within GraphPad Prism 9.5.0.

T1 sequence (Q8I0V0 218-688): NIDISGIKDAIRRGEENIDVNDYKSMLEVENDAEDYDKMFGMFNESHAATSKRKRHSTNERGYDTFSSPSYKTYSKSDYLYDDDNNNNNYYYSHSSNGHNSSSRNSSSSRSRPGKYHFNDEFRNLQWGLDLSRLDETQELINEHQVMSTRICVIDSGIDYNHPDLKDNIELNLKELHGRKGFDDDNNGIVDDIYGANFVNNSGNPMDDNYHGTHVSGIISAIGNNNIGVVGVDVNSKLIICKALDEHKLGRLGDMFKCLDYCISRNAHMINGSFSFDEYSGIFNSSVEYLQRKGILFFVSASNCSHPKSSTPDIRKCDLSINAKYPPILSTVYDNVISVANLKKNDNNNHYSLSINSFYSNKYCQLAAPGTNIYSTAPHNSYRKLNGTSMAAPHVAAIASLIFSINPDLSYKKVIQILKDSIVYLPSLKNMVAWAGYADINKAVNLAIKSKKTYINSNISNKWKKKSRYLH

CC(=O)N[C@H](C(=O)N[C@@H](CC1CCCC1)C(=O)NCC(=O)N[C@@H](C)B(O)O)C1CCCC1 [2c, ((2R,8S,11S)-11-cyclopentyl-8-(cyclopentylmethyl)-4,7,10,13-tetraoxo-3,6,9,12-tetra-azatetradecan-2-yl)boronic acid]
IC50 [1]: 7.5 ± 0.8 nM

CC[C@H](C)[C@H](NC(=O)[C@@H](NCc1ccccc1)C1CCCC1)C(=O)NCC(=O)N[C@@H](C)B(O)O [3i, ((3S,6S,12R)-6-((S)-sec-butyl)-3-cyclopentyl-4,7,10-trioxo-1-phenyl-2,5,8,11-tetra-azatridecan-12-yl)boronic acid]
IC50 [1]: 23.2 ± 0.3 nM

CC[C@H](C)[C@H](NC(=O)[C@@H](NC(C)=O)C1CCCC1)C(=O)NCC(=O)N[C@@H](C)B(O)O [2f, ((2R,8S,11S)-8-((S)-sec-butyl)-11-cyclopentyl-4,7,10,13-tetraoxo-3,6,9,12-tetraaza-tetradecan-2-yl)boronic acid]
IC50 [1]: 5.4 ± 0.1 nM

CC(=O)N[C@H](C(=O)N[C@@H](Cc1ccccc1)C(=O)NCC(=O)N[C@@H](C)B(O)O)C1CCCC1 [2h, ((2R,8S,11S)-8-benzyl-11-cyclopentyl-4,7,10,13-tetraoxo-3,6,9,12-tetraazatetradecan-2-yl)boronic acid]
IC50 [1]: 6.9 ± 2.6 nM

CC[C@H](C)[C@H](NC(=O)[C@@H](NC(=O)c1ccc2ccccc2n1)C1CCCC1)C(=O)NCC(=O)N[C@@H](C)B(O)O [3a, ((3S,6S,12R)-6-((S)-sec-butyl)-3-cyclopentyl-1,4,7,10-tetraoxo-1-(quinolin-2-yl)-2,5,8,11-tetraazatridecan-12-yl)boronic acid]
IC50 [2]: 6 ± 0.5 nM | IC50 [1]: 9.5 ± 0.6 nM

CC(C)C[C@H](NC(=O)[C@H](CCc1ccccc1)NC(=O)CN1CCOCC1)C(=O)N[C@@H](Cc1ccccc1)C(=O)N[C@@H](CC(C)C)C(=O)[C@@]1(C)CO1 [carfilzomib, reference compound]
inhibition of rPfSUB1 activity at 1 μM [1]: lack of inhibition

CC[C@H](C)[C@H](NC(=O)[C@@H](NC(=O)c1cc(C)cc(C)c1)C1CCCC1)C(=O)NCC(=O)N[C@@H](C)B(O)O [3c, ((3S,6S,12R)-6-((S)-sec-butyl)-3-cyclopentyl-1-(3,5-dimethylphenyl)-1,4,7,10-tetra-oxo-2,5,8,11-tetraazatridecan-12-yl)boronic acid]
IC50 [1]: 6.9 ± 0.3 nM

CC(=O)N[C@H](C(=O)N[C@@H](CC(C)C)C(=O)NCC(=O)N[C@@H](C)B(O)O)C1CCCC1 [2g, ((2R,8S,11S)-11-cyclopentyl-8-isobutyl-4,7,10,13-tetraoxo-3,6,9,12-tetraazatetra-decan-2-yl)boronic acid]
IC50 [1]: 7.8 ± 0.1 nM

CC(=O)N[C@H](C(=O)N[C@@H](CC1CCCCC1)C(=O)NCC(=O)N[C@@H](C)B(O)O)C1CCCC1 [2d, ((2R,8S,11S)-8-(cyclohexylmethyl)-11-cyclopentyl-4,7,10,13-tetraoxo-3,6,9,12-tetra-azatetradecan-2-yl)boronic acid]
IC50 [1]: 6.7 ± 0.3 nM

((3S,6S,12R)-6-((S)-sec-butyl)-3-cyclopentyl-1-(3,5-dimethylphenyl)-1,4,7,10-tetra-oxo-2,5,8,11-tetraazatridecan-12-yl)boronic acid [3d]
IC50 [1]: 3.2 ± 0.1 nM

CC(=O)N[C@H](C(=O)N[C@H](C(=O)NCC(=O)N[C@@H](C)B(O)O)c1ccccc1)C1CCCC1 [2b, ((2R,8S,11S)-11-cyclopentyl-4,7,10,13-tetraoxo-8-phenyl-3,6,9,12-tetraazatetradecan-2-yl)boronic acid]
IC50 [1]: 2.8 ± 0.1 nM

CC[C@H](C)[C@H](NC(=O)[C@@H](NC(=O)C1CCC1)C1CCCC1)C(=O)NCC(=O)N[C@@H](C)B(O)O [3g, ((3S,6S,12R)-6-((S)-sec-butyl)-1-cyclobutyl-3-cyclopentyl-1,4,7,10-tetraoxo-2,5,8,11-tetraazatridecan-12-yl)boronic acid]
IC50 [1]: 2 ± 0.1 nM

CC[C@H](C)[C@H](NC(=O)[C@@H](NC(=O)C(C)(C)C)C1CCCC1)C(=O)NCC(=O)N[C@@H](C)B(O)O [3f, ((2R,8S,11S)-8-((S)-sec-butyl)-11-cyclopentyl-14,14-dimethyl-4,7,10,13-tetraoxo-3,6,9,12-tetraazapentadecan-2-yl)boronic acid]
IC50 [1]: 3.9 ± 0.3 nM

CC[C@H](C)[C@H](NC(=O)[C@@H](NC(=O)C(C)C)C1CCCC1)C(=O)NCC(=O)N[C@@H](C)B(O)O [3e, ((2R,8S,11S)-8-((S)-sec-butyl)-11-cyclopentyl-14-methyl-4,7,10,13-tetraoxo-3,6,9,12-tetraazapentadecan-2-yl)boronic acid]
IC50 [1]: 3.9 ± 0.3 nM

CC[C@H](C)[C@H](NC(=O)[C@@H](NC(=O)c1ccc2ccccc2n1)C1CCCC1)C(=O)NCC(=O)N[C@H]1CCC(=O)OB1O [4a, N-((S)-1-cyclopentyl-2-(((2S,3S)-1-((2-(((R)-2-hydroxy-6-oxo-1,2-oxaborinan-3-yl)amino)-2-oxoethyl)amino)-3-methyl-1-oxopentan-2-yl)amino)-2-oxoethyl) quinoline-2-carboxamide]
IC50 [2]: 410 ± 5 nM | IC50 [1]: 36.1 ± 2.4 nM

CC[C@H](C)[C@H](NC(=O)[C@@H](NS(=O)(=O)c1nccs1)C1CCCC1)C(=O)NCC(=O)N[C@@H](C)B(O)O [3h, ((R)-1-(2-((2S,3S)-2-((S)-2-cyclopentyl-2-(thiazole-2-sulfonamido)acetamido)-3-methylpentanamido)acetamido)ethyl)boronic acid]
IC50 [1]: 3.4 ± 0.3 nM

CC(C)C[C@H](NC(=O)[C@H](Cc1ccccc1)NC(=O)c1cnccn1)B(O)O [5a, bortezomib, reference compound]
inhibition of rPfSUB1 activity at 1 μM [1]: Non inhibitory^b | inhibition of rPfSUB1 activity at 1 μM ([1]; listed as bortezomib): lack of inhibition

CC(C)C[C@H](NC(=O)CNC(=O)c1cc(Cl)ccc1Cl)B(O)O [ixazomib, reference compound]
inhibition of rPfSUB1 activity at 1 μM [1]: lack of inhibition

CC(=O)N[C@H](C(=O)N[C@H](C(=O)NCC(=O)N[C@@H](C)B(O)O)C(C)(C)C)C1CCCC1 [2a, ((2R,8S,11S)-8-(tert-butyl)-11-cyclopentyl-4,7,10,13-tetraoxo-3,6,9,12-tetraazatetradecan-2-yl)boronic acid]
IC50 [1]: 2.1 ± 0.1 nM

CC[C@H](C)[C@H](NC(=O)[C@@H](NC(=O)c1cccc(-c2ccccc2)n1)C1CCCC1)C(=O)NCC(=O)N[C@H]1CCC(=O)OB1O [4b, N-((S)-1-cyclopentyl-2-(((2S,3S)-1-((2-(((R)-2-hydroxy-6-oxo-1,2-oxaborinan-3-yl)amino)-2-oxoethyl)amino)-3-methyl-1-oxopentan-2-yl)amino)-2-oxoethyl)-6-phenylpicolinamide]
IC50 [2]: 160 ± 10 nM | IC50 [1]: 13 ± 0.6 nM

CC[C@H](C)[C@H](NC(=O)[C@@H](NCc1ccccn1)C1CCCC1)C(=O)NCC(=O)N[C@@H](C)B(O)O [3j, ((3S,6S,12R)-6-((S)-sec-butyl)-3-cyclopentyl-4,7,10-trioxo-1-(pyridin-2-yl)-2,5,8,11-tetraazatridecan-12-yl)boronic acid]
IC50 [1]: 71 ± 6.8 nM

CC(=O)N[C@H](C(=O)N[C@H](C(=O)NCC(=O)N[C@@H](C)B(O)O)[C@@H](C)O)C1CCCC1 [1b]
IC50 [2]: 35.4 ± 1.7 nM

CC(=O)N[C@H](C(=O)N[C@@H](CC(C)(C)C)C(=O)NCC(=O)N[C@@H](C)B(O)O)C1CCCC1 [2e, ((2R,8S,11S)-11-cyclopentyl-8-neopentyl-4,7,10,13-tetraoxo-3,6,9,12-tetraazatetra-decan-2-yl)boronic acid]
IC50 [1]: 43.5 ± 2.7 nM | fold decreased PfSUB1 potency compared to homologue 2a ([1]; rPfSUB1 IC50 vs 2a): ~ 20 fold

CC[C@H](C)[C@H](NC(=O)[C@@H](NC(=O)c1cccc(-c2ccccc2)n1)C1CCCC1)C(=O)NCC(=O)N[C@@H](C)B(O)O [3b, ((3S,6S,12R)-6-((S)-sec-butyl)-3-cyclopentyl-1,4,7,10-tetraoxo-1-(6-phenylpyridin-2-yl)-2,5,8,11-tetraazatridecan-12-yl)boronic acid]
IC50 [2]: 7 ± 0.1 nM | IC50 [1]: 9.3 ± 0.2 nM
